Reference: patent US8546386B2, “Corrosion and microbial control in hydrocarbonaceous compositions” (Dow Global Technologies LLC, priority 2008, dated 2013)

Columns and labels:
Assay type in all cases: cell-based
[1] = test system: Pseudomonas aeruginosa ATCC#33988; experiment: Microbial testing in diesel fuel, plate count
[2] = test system: Hormoconis resinae ATCC#20495; experiment: Microbial testing in biodiesel fuel, plate count; conditions: Biocide 0 ppm
[3] = test system: Yarrowia tropicalis ATCC#48138; experiment: Microbial testing in biodiesel fuel, plate count; conditions: Biocide 0 ppm
[4] = test system: Yarrowia tropicalis ATCC#48138; experiment: Microbial testing in diesel fuel, plate count
[5] = test system: Hormoconis resinae ATCC#20495; experiment: Microbial testing in diesel fuel, plate count
[6] = test system: Pseudomonas aeruginosa ATCC#33988; experiment: Microbial testing in biodiesel fuel, plate count; conditions: Biocide 0 ppm
[7] = amino alcohol 1500 ppm + FS 135 ppm, Day 0
[8] = amino alcohol 1500 ppm + FS 135 ppm, Wk 1
[9] = amino alcohol 1500 ppm + FS 135 ppm, Wk 2
[10] = amino alcohol 1500 ppm + FS 135 ppm, Wk 3
[11] = amino alcohol 1500 ppm + FS 135 ppm, Wk 4
[12] = amino alcohol 1500 ppm + FS 1000 ppm, Day 0
[13] = amino alcohol 1500 ppm + FS 1000 ppm, Wk 1
[14] = amino alcohol 1500 ppm + FS 1000 ppm, Wk 2
[15] = amino alcohol 1500 ppm + FS 1000 ppm, Wk 3
[16] = amino alcohol 1500 ppm + FS 1000 ppm, Wk 4
[17] = amino alcohol 1500 ppm, no biocide, Day 0
[18] = amino alcohol 1500 ppm, no biocide, Wk 1
[19] = amino alcohol 1500 ppm, no biocide, Wk 2
[20] = amino alcohol 1500 ppm, no biocide, Wk 3
[21] = amino alcohol 1500 ppm, no biocide, Wk 4
[22] = amino alcohol 3000 ppm + FS 135 ppm, Day 0
[23] = amino alcohol 3000 ppm + FS 135 ppm, Wk 1
[24] = amino alcohol 3000 ppm + FS 135 ppm, Wk 2
[25] = amino alcohol 3000 ppm + FS 135 ppm, Wk 3
[26] = amino alcohol 3000 ppm + FS 135 ppm, Wk 4
[27] = amino alcohol 3000 ppm + FS 1000 ppm, Day 0
[28] = amino alcohol 3000 ppm + FS 1000 ppm, Wk 1
[29] = amino alcohol 3000 ppm + FS 1000 ppm, Wk 2
[30] = amino alcohol 3000 ppm + FS 1000 ppm, Wk 3
[31] = amino alcohol 3000 ppm + FS 1000 ppm, Wk 4
[32] = amino alcohol 3000 ppm, no biocide, Day 0
[33] = amino alcohol 3000 ppm, no biocide, Wk 1
[34] = amino alcohol 3000 ppm, no biocide, Wk 2
[35] = amino alcohol 3000 ppm, no biocide, Wk 3
[36] = amino alcohol 3000 ppm, no biocide, Wk 4

For `NC1(CO)CCCCC1` [ACyHM, 1-aminocyclohexylmethanol], the “Ps. aeruginosa organism count” value [1, 7] was 3.7E6, the “Ps. aeruginosa organism count” value [1, 8] was 9.0E5 and the “Ps. aeruginosa organism count” value [1, 9] was 4.3E4. For the same compound, the “Ps. aeruginosa organism count” value [1, 10] was 1.1E2, the “Ps. aeruginosa organism count” value [1, 11] was 2.3E2 and the “Ps. aeruginosa organism count” value [1, 12] was 3.7E6. For the same compound, the “Ps. aeruginosa organism count” value [1, 13] was 7.8E3, the “Ps. aeruginosa organism count” value [1, 14] was <10 and the “Ps. aeruginosa organism count” value [1, 15] was <10. For the same compound, the “Ps. aeruginosa organism count” value [1, 16] was <10, the “Ps. aeruginosa organism count” value [1, 17] was 3.7E6 and the “Ps. aeruginosa organism count” value [1, 18] was 5.8E6. The “Ps. aeruginosa organism count” value [1, 19] was 6.3E5, the “Ps. aeruginosa organism count” value [1, 20] was 4.4E5 and the “Ps. aeruginosa organism count” value [1, 21] was 8.7E5. For the same compound, the “Ps. aeruginosa organism count” value [1, 22] was 3.7E6, the “Ps. aeruginosa organism count” value [1, 23] was 8.6E2 and the “Ps. aeruginosa organism count” value [1, 24] was 7.0E1. The “Ps. aeruginosa organism count” value [1, 25] was <10, the “Ps. aeruginosa organism count” value [1, 26] was 9.0E1 and the “Ps. aeruginosa organism count” value [1, 27] was 3.7E6. The “Ps. aeruginosa organism count” value [1, 28] was <10, the “Ps. aeruginosa organism count” value [1, 29] was <10 and the “Ps. aeruginosa organism count” value [1, 30] was <10. The “Ps. aeruginosa organism count” value [1, 31] was <10, the “Ps. aeruginosa organism count” value [1, 32] was 3.7E6 and the “Ps. aeruginosa organism count” value [1, 33] was 2.0E6. For the same compound, the “Ps. aeruginosa organism count” value [1, 34] was 1.4E5, the “Ps. aeruginosa organism count” value [1, 35] was 7.7E4 and the “Ps. aeruginosa organism count” value [1, 36] was 9.0E4. For the same compound, the “H. resinae organism count” value ([2]; aminoalcohol 1500 ppm, Week 1) was <1.0E2, the “H. resinae organism count” value ([2]; aminoalcohol 1500 ppm, Week 2) was <1.0E2 and the “H. resinae organism count” value ([2]; aminoalcohol 1500 ppm, Week 3) was <1.0E2. The “H. resinae organism count” value ([2]; aminoalcohol 1500 ppm, Week 4) was <1.0E2, the “H. resinae organism count” value ([2]; aminoalcohol 3000 ppm, Week 1) was <1.0E2 and the “H. resinae organism count” value ([2]; aminoalcohol 3000 ppm, Week 2) was <1.0E2. For the same compound, the “H. resinae organism count” value ([2]; aminoalcohol 3000 ppm, Week 3) was <1.0E2, the “H. resinae organism count” value ([2]; aminoalcohol 3000 ppm, Week 4) was <1.0E2 and the “Y. tropicalis organism count” value ([3]; aminoalcohol 1500 ppm, Week 1) was <1.0E2. For the same compound, the “Y. tropicalis organism count” value ([3]; aminoalcohol 1500 ppm, Week 2) was <1.0E2, the “Y. tropicalis organism count” value ([3]; aminoalcohol 1500 ppm, Week 3) was <1.0E2 and the “Y. tropicalis organism count” value ([3]; aminoalcohol 1500 ppm, Week 4) was <1.0E2. The “Y. tropicalis organism count” value ([3]; aminoalcohol 3000 ppm, Week 1) was <1.0E2, the “Y. tropicalis organism count” value ([3]; aminoalcohol 3000 ppm, Week 2) was <1.0E2 and the “Y. tropicalis organism count” value ([3]; aminoalcohol 3000 ppm, Week 3) was <1.0E2. The “Y. tropicalis organism count” value ([3]; aminoalcohol 3000 ppm, Week 4) was <1.0E2, the “Y. tropicalis organism count” value [4, 7] was 2.8E5 and the “Y. tropicalis organism count” value [4, 8] was 7.8E4. For the same compound, the “Y. tropicalis organism count” value [4, 9] was 5.0E3, the “Y. tropicalis organism count” value [4, 10] was 6.7E2 and the “Y. tropicalis organism count” value [4, 11] was 1.8E2. The “Y. tropicalis organism count” value [4, 12] was 2.8E5, the “Y. tropicalis organism count” value [4, 13] was 1.6E4 and the “Y. tropicalis organism count” value [4, 14] was <10. For the same compound, the “Y. tropicalis organism count” value [4, 15] was <10, the “Y. tropicalis organism count” value [4, 16] was <10 and the “Y. tropicalis organism count” value [4, 17] was 2.8E5. For the same compound, the “Y. tropicalis organism count” value [4, 18] was 4.5E5, the “Y. tropicalis organism count” value [4, 19] was 1.3E5 and the “Y. tropicalis organism count” value [4, 20] was 7.6E4. The “Y. tropicalis organism count” value [4, 21] was 5.3E4, the “Y. tropicalis organism count” value [4, 22] was 2.8E5 and the “Y. tropicalis organism count” value [4, 23] was 1.3E2. The “Y. tropicalis organism count” value [4, 24] was <10, the “Y. tropicalis organism count” value [4, 25] was <10 and the “Y. tropicalis organism count” value [4, 26] was <10. The “Y. tropicalis organism count” value [4, 27] was 2.8E5, the “Y. tropicalis organism count” value [4, 28] was <10 and the “Y. tropicalis organism count” value [4, 29] was <10. For the same compound, the “Y. tropicalis organism count” value [4, 30] was <10, the “Y. tropicalis organism count” value [4, 31] was <10 and the “Y. tropicalis organism count” value [4, 32] was 2.8E5. For the same compound, the “Y. tropicalis organism count” value [4, 33] was 9.3E4, the “Y. tropicalis organism count” value [4, 34] was 4.0E4 and the “Y. tropicalis organism count” value [4, 35] was 1.6E4. For the same compound, the “Y. tropicalis organism count” value [4, 36] was 2.7E4, the “H. resinae organism count” value [5, 7] was 5.3E5 and the “H. resinae organism count” value [5, 8] was 2.5E5. For the same compound, the “H. resinae organism count” value [5, 9] was 2.0E3, the “H. resinae organism count” value [5, 10] was 4.3E2 and the “H. resinae organism count” value [5, 11] was 7.0E2. For the same compound, the “H. resinae organism count” value [5, 12] was 5.3E5, the “H. resinae organism count” value [5, 13] was 1.1E4 and the “H. resinae organism count” value [5, 14] was <10. The “H. resinae organism count” value [5, 15] was <10, the “H. resinae organism count” value [5, 16] was 8.0E1 and the “H. resinae organism count” value [5, 17] was 5.3E5. The “H. resinae organism count” value [5, 18] was 5.0E5, the “H. resinae organism count” value [5, 19] was 1.3E5 and the “H. resinae organism count” value [5, 20] was 1.2E5. The “H. resinae organism count” value [5, 21] was 2.7E5, the “H. resinae organism count” value [5, 22] was 5.3E5 and the “H. resinae organism count” value [5, 23] was 2.0E3. For the same compound, the “H. resinae organism count” value [5, 24] was 2.7E2, the “H. resinae organism count” value [5, 25] was <10 and the “H. resinae organism count” value [5, 26] was 1.6E2. For the same compound, the “H. resinae organism count” value [5, 27] was 5.3E5, the “H. resinae organism count” value [5, 28] was 4.3E2 and the “H. resinae organism count” value [5, 29] was <10. The “H. resinae organism count” value [5, 30] was 5.0E1, the “H. resinae organism count” value [5, 31] was <10 and the “H. resinae organism count” value [5, 32] was 5.3E5. The “H. resinae organism count” value [5, 33] was 9.4E4, the “H. resinae organism count” value [5, 34] was 4.6E4 and the “H. resinae organism count” value [5, 35] was 6.6E4. The “H. resinae organism count” value [5, 36] was 4.8E4, the “Ps. aeruginosa organism count” value ([6]; aminoalcohol 1500 ppm, Week 1) was <1.0E2 and the “Ps. aeruginosa organism count” value ([6]; aminoalcohol 1500 ppm, Week 2) was <1.0E2. The “Ps. aeruginosa organism count” value ([6]; aminoalcohol 1500 ppm, Week 3) was <1.0E2, the “Ps. aeruginosa organism count” value ([6]; aminoalcohol 1500 ppm, Week 4) was <1.0E2 and the “Ps. aeruginosa organism count” value ([6]; aminoalcohol 3000 ppm, Week 1) was <1.0E2. The “Ps. aeruginosa organism count” value ([6]; aminoalcohol 3000 ppm, Week 2) was <1.0E2, the “Ps. aeruginosa organism count” value ([6]; aminoalcohol 3000 ppm, Week 3) was <1.0E2 and the “Ps. aeruginosa organism count” value ([6]; aminoalcohol 3000 ppm, Week 4) was <1.0E2.
